The values that follow come from patent EP0139005A1, “ANTITUMOR COMPOSITION, METHOD FOR TREATING TUMOR, AND USE OF THE COMPOSITION FOR TREATING TUMOR” (Yoshitomi Pharmaceutical Industries, Ltd., priority 1982, dated 1984).

One assay deals with leukemia. Conditions: R.H. Adamson, Nature 217, 751-752 (1968); cited from earlier work.
The subject of assay [1] is L1210 leukemia. Put plainly: L1210 leukemia implanted intraperitoneally, i.p. treatment, survival (Experimental Example 3). The assay is classed as in vivo, female CDF1 mice. Conditions: for Average Survival Time / Life-Prolongation Ratio (%): once daily for seven days; for effectiveness against L1210 leukemia: i.p., all doses of Table 4. The procedure:
(§1) The life-prolongation ratio was calculated by the following scheme (the same scheme is applied to the subsequent experimental examples).
(§2) Life-prolongation Ratio [formula] T : Average survival days of the treated group
(§3) C : Average survival days of the control group
(§4) Animals survived over 30 days or longer were estimated as 30-day survivors, and the cases where T/C equals to or greater than 125% were regarded as effective.
A plurality of groups each consisting of five heads of female CDF1 mice (8 weeks old) were respectively implanted intraperitoneally with 10 cells of L1210 leukemia. After the next day of the implantation, Y-6430, ESCC and ESCC ethyl ester (hereinafter referred to ESCC-Et) in physiological saline were respectively administered once daily for seven days intraperitoneally, and the average survival days and life-prolongation ratios in each group were calculated.
(§5) All the test animals died of tumor within 30 days.

The test system of another assay is P388 leukemia. Put plainly: P388 leukemia implanted intraperitoneally, survival (Experimental Example 2). Conditions: for 30-day Survivors / Average Survival Time / Life-Prolongation Ratio (%): once daily for seven days. The class given is in vivo, female CDF1 mice. The procedure:
as §1, §2, §3, §4
A plurality of groups each consisting of five heads of female CDF1 mice (7-8 weeks old) were respectively implanted intraperitoneally with 10^6 cells of P388 leukemia. After 24 hours, Y-6430 and ESCC were respectively administered once daily for seven days, and average survival days, life-prolongation ratios and 30-day survivors in each group were calculated.

The subject of assay [2] is L1210 leukemia. As to the kind of experiment: L1210 leukemia implanted intraperitoneally, oral or subcutaneous treatment, survival (Experimental Example 4). The note with it: for Average Survival Time / Life-Prolongation Ratio (%): once daily for seven days. The assay is classed as in vivo, female CDF1 mice. The procedure:
as §1, §2, §3, §4
A plurality of groups each consisting of five female CDF1 mice (7-8 weeks old) were respectively implanted intraperitoneally with 10 cells of L1210 leukemia. After the next day of the implantation, the test animals were administered orally or subcutaneously once daily for seven days with Y-6430 or ESCC dissolved in physiological saline, and the average survival days and life-prolongation ratios in each group were calculated.
as §5

In a further assay the test system is experimental tumors. The note with it: L. Nemeth et al., Arzneim.-Forsh./Drug Res. 28(II), 1119-1123 (1978); cited from earlier work.

Regarding `NC(=O)SC[C@H](N)C(=O)O` [S-carbamoyl-L-cysteine], in the assay on leukemia, the “effectiveness against leukemia in mice” value is “effective”.
As to `CCNC(=O)SC[C@H](N)C(=O)OCC` [ESCC-Et, ESCC ethyl ester], the “Average Survival Time” value in the assay with L1210 leukemia [1] (50 mg/kg/day i.p.) stood at 8.2 days; in the assay with L1210 leukemia [1] (100 mg/kg/day i.p.), 8.4 days; in the assay on L1210 leukemia [1] (250 mg/kg/day i.p.), 9.0 days; with L1210 leukemia [1] (500 mg/kg/day i.p.) it was 9.0 days. In addition, the “Life-Prolongation Ratio (%)” value with L1210 leukemia [1] (50 mg/kg/day i.p.) is 103%; with L1210 leukemia [1] (100 mg/kg/day i.p.), 105%; in the assay with L1210 leukemia [1] (250 mg/kg/day i.p.), 113%; in the assay on L1210 leukemia [1] (500 mg/kg/day i.p.) it was 113%. Also, in the assay with L1210 leukemia [1], the “effectiveness against L1210 leukemia” value is listed as “ineffective”.
Regarding `CCNC(=O)SC[C@H](N)C(=O)O` [ESCC, S-ethylcarbamoyl-L-cysteine, reference compound], the “30-day Survivors” value with P388 leukemia (100 mg/kg/day p.o.), in the assay with P388 leukemia (250 mg/kg/day p.o.), with P388 leukemia (500 mg/kg/day p.o.) and in the assay with P388 leukemia (1,000 mg/kg/day p.o.) was 0/5 throughout. The “Average Survival Time” value came out at 10.2 days with P388 leukemia (100 mg/kg/day p.o.); 10.8 days in the assay on P388 leukemia (250 mg/kg/day p.o.); 10.8 days in the assay on P388 leukemia (500 mg/kg/day p.o.); 12.6 days with P388 leukemia (1,000 mg/kg/day p.o.); 8.0 days in the assay with L1210 leukemia [1] (50 mg/kg/day i.p.); 8.0 days in the assay on L1210 leukemia [1] (100 mg/kg/day i.p.). Also, the “Average Survival Time” value in the assay on L1210 leukemia [1] (250 mg/kg/day i.p.) worked out at 9.0 days; in the assay on L1210 leukemia [1] (500 mg/kg/day i.p.), 9.0 days; with L1210 leukemia [2] (100 mg/kg/day s.c.), 8.0 days; with L1210 leukemia [2] (250 mg/kg/day s.c.), 8.0 days; in the assay with L1210 leukemia [2] (500 mg/kg/day p.o.), 8.0 days; in the assay with L1210 leukemia [2] (500 mg/kg/day s.c.), 8.0 days. The “Average Survival Time” value is listed as 9.2 days with L1210 leukemia [2] (1,000 mg/kg/day p.o.) and 9.6 days in the assay with L1210 leukemia [2] (2,000 mg/kg/day p.o.). Also, the “Life-Prolongation Ratio (%)” value in the assay on P388 leukemia (100 mg/kg/day p.o.) is on record as 102%; in the assay on P388 leukemia (250 mg/kg/day p.o.) it was 108%; in the assay with P388 leukemia (500 mg/kg/day p.o.), 108%; in the assay with P388 leukemia (1,000 mg/kg/day p.o.) it was 126%; in the assay on L1210 leukemia [1] (50 mg/kg/day i.p.), 108%; in the assay on L1210 leukemia [1] (100 mg/kg/day i.p.), 108%. Besides, the “Life-Prolongation Ratio (%)” value with L1210 leukemia [1] (250 mg/kg/day i.p.) turned out to be 122%; with L1210 leukemia [1] (500 mg/kg/day i.p.), 122%; in the assay with L1210 leukemia [2] (100 mg/kg/day s.c.) it was 100%; in the assay with L1210 leukemia [2] (250 mg/kg/day s.c.), 100%; in the assay with L1210 leukemia [2] (500 mg/kg/day p.o.) it was 98%; in the assay with L1210 leukemia [2] (500 mg/kg/day s.c.), 100%. Also, the “Life-Prolongation Ratio (%)” value in the assay with L1210 leukemia [2] (1,000 mg/kg/day p.o.) was determined as 112%; in the assay with L1210 leukemia [2] (2,000 mg/kg/day p.o.), 117%. In addition, the “effectiveness against P388 leukemia” value in the assay with P388 leukemia (summary of Tables 2 and 3, T/C equal to or greater than 125% regarded as effective) is recorded as “only slightly effective”. For the same molecule, the “effectiveness against L1210 leukemia” value in the assay with L1210 leukemia [1] is “ineffective”; in the assay on L1210 leukemia [2] (oral and subcutaneous administration), “ineffective”. In addition, in the assay with experimental tumors, the “effect against experimental tumors” value was “more excellent effect than S-carbamoyl-L-cysteine”.
